Source: ChEMBL document CHEMBL3860041, “Synthesis, biological evaluation and molecular modeling study of some new methoxylated 2-benzylthio-quinazoline-4(3H)-ones as nonclassical antifolates” (Bioorg Med Chem Lett, 2016)
≈ marks a conversion by molar mass, not a printed value.

What was measured:
Bacillus subtilis [1] = assay: Antimicrobial activity against Bacillus subtilis IFO 3007 at 200 ug/disc measured after 24 hrs by agar disc-diffusion method; type: functional; conditions: IFO 3007, 24 h, read-out: DIZ
Candida albicans = assay: Antimicrobial activity against Candida albicans IFO 0583 at 200 ug/disc measured after 48 hrs by agar disc-diffusion method; type: functional; conditions: IFO 0583, 48 h, read-out: DIZ
Bacillus subtilis [2] = assay: Antimicrobial activity against Bacillus subtilis IFO 3007 measured after 24 hrs by microdilution method; type: functional; conditions: IFO 3007, 24 h
Escherichia coli [3] = assay: Antimicrobial activity against Escherichia coli IFO 3301 at 200 ug/disc measured after 24 hrs by agar disc-diffusion method; type: functional; conditions: IFO 3301, 24 h, read-out: DIZ
Pseudomonas aeruginosa = assay: Antimicrobial activity against Pseudomonas aeruginosa IFO 3448 at 200 ug/disc measured after 24 hrs by agar disc-diffusion method; type: functional; conditions: IFO 3448, 24 h, read-out: DIZ
Staphylococcus aureus [4] = assay: Antimicrobial activity against Staphylococcus aureus IFO 3060 at 200 ug/disc measured after 24 hrs by agar disc-diffusion method; type: functional; conditions: IFO 3060, 24 h, read-out: DIZ
Escherichia coli [5] = assay: microbe, parasite or virus in culture; conditions: IFO 3301, 24 h
Description: Antimicrobial activity against Escherichia coli IFO 3301 measured after 24 hrs by microdilution method

Staphylococcus aureus [6] = assay: Antimicrobial activity against Staphylococcus aureus IFO 3060 measured after 24 hrs by microdilution method; type: functional; conditions: IFO 3060, 24 h

Row | SMILES | zone of inhibition at 200 µg/disc (Bacillus subtilis [1]) [mm] | zone of inhibition at 200 µg/disc (Candida albicans) [mm] | MIC (Bacillus subtilis [2]) [µg/mL] | zone of inhibition at 200 µg/disc (Escherichia coli [3]) [mm] | zone of inhibition at 200 µg/disc (Pseudomonas aeruginosa) [mm] | zone of inhibition at 200 µg/disc (Staphylococcus aureus [4]) [mm] | MIC (Escherichia coli [5]) [µg/mL] | MIC (Staphylococcus aureus [6]) [µg/mL]
1 | COc1cc2nc(SCc3cc(OC)c(OC)c(OC)c3)n(Cc3ccccc3)c(=O)c2cc1OC | 22 | 8 | 4 (≈ 7.86 µM) | 16 | 8 | 20 | 8 (≈ 15.7 µM) | 4 (≈ 7.86 µM)
2 | COc1cc(CSc2nc3ccc(Cl)cc3c(=O)n2-c2ccccc2)cc(OC)c1OC | 20 | 8 | 4 (≈ 8.53 µM) | 16 | 8 | 17 | 8 (≈ 17.1 µM) | 8 (≈ 17.1 µM)
